Measured values reported in PubChem BioAssay AID1259407 (Chemical Carcinogenesis Research Information System (CCRIS), 2018).
Activity calls are given as the source filed them. How the calls were made is not given here.

Test system: CCRIS mutagenicity, Ames/micronucleus/aberration tests
Experiment: CCRIS mutagenicity studies
[1] = Test System: AMES SALMONELLA TYPHIMURIUM, Strain/Indicator: TA98, Metabolic Activation: NONE, Method: STANDARD PLATE
[2] = Test System: AMES SALMONELLA TYPHIMURIUM, Strain/Indicator: TA98, Metabolic Activation: RAT, LIVER, S-9, AROCLOR 1254, Method: STANDARD PLATE
[3] = Test System: AMES SALMONELLA TYPHIMURIUM, Strain/Indicator: TA100, Metabolic Activation: NONE, Method: STANDARD PLATE
[4] = Test System: AMES SALMONELLA TYPHIMURIUM, Strain/Indicator: TA100, Metabolic Activation: NONE, Method: PREINCUBATION

Structure (SMILES): CC(C)=CC1C(C(=O)OCc2coc(Cc3ccccc3)c2)C1(C)C (configuration not stated)
- mutagenic call (Test System: AMES SALMONELLA TYPHIMURIUM, Strain/Indicator: TA97, Metabolic Activation: NONE, Method: STANDARD PLATE): inactive; negative
- mutagenic call (Test System: AMES SALMONELLA TYPHIMURIUM, Strain/Indicator: TA97, Metabolic Activation: RAT, LIVER, S-9, PHENOBARBITONE, Method: STANDARD PLATE): inactive; negative
- mutagenic call (Test System: AMES SALMONELLA TYPHIMURIUM, Strain/Indicator: TA98): active; positive
- mutagenic call (Test System: AMES SALMONELLA TYPHIMURIUM, Strain/Indicator: TA98, Metabolic Activation: NONE): inactive; negative
- mutagenic call [1]: inactive; negative
- mutagenic call [2]: inactive; negative
- mutagenic call (Test System: AMES SALMONELLA TYPHIMURIUM, Strain/Indicator: TA98, Metabolic Activation: RAT, LIVER, S-9, PHENOBARBITONE, Method: STANDARD PLATE): inactive; negative
- mutagenic call (Test System: AMES SALMONELLA TYPHIMURIUM, Strain/Indicator: TA100): active; positive
- mutagenic call (Test System: AMES SALMONELLA TYPHIMURIUM, Strain/Indicator: TA100, Metabolic Activation: NONE): inactive; negative
- mutagenic call [3]: inactive; negative
- mutagenic call (Test System: AMES SALMONELLA TYPHIMURIUM, Strain/Indicator: TA100, Metabolic Activation: RAT, LIVER, S-9, AROCLOR 1254, Method: STANDARD PLATE): inactive; negative
- mutagenic call (Test System: AMES SALMONELLA TYPHIMURIUM, Strain/Indicator: TA100, Metabolic Activation: RAT, LIVER, S-9, PHENOBARBITONE, Method: STANDARD PLATE): inactive; negative
- mutagenic call (Test System: AMES SALMONELLA TYPHIMURIUM, Strain/Indicator: TA104, Metabolic Activation: NONE, Method: STANDARD PLATE): inactive; negative
- mutagenic call (Test System: AMES SALMONELLA TYPHIMURIUM, Strain/Indicator: TA104, Metabolic Activation: RAT, LIVER, S-9, PHENOBARBITONE, Method: STANDARD PLATE): inactive; negative
- mutagenic call (Test System: AMES SALMONELLA TYPHIMURIUM, Strain/Indicator: TA1535, Metabolic Activation: NONE, Method: STANDARD PLATE): inactive; negative
- mutagenic call (Test System: AMES SALMONELLA TYPHIMURIUM, Strain/Indicator: TA1535, Metabolic Activation: RAT, LIVER, S-9, AROCLOR 1254, Method: STANDARD PLATE): inactive; negative
- mutagenic call (Test System: AMES SALMONELLA TYPHIMURIUM, Strain/Indicator: TA1537, Metabolic Activation: NONE, Method: STANDARD PLATE): inactive; negative
- mutagenic call (Test System: AMES SALMONELLA TYPHIMURIUM, Strain/Indicator: TA1537, Metabolic Activation: RAT, LIVER, S-9, AROCLOR 1254, Method: STANDARD PLATE): inactive; negative
- mutagenic call (Test System: CHINESE HAMSTER V-79, Strain/Indicator: V-79/6-THIOGUANINE, Metabolic Activation: NONE, Method: STANDARD PLATE): inactive; negative
- mutagenic call (Test System: CHINESE HAMSTER V-79, Strain/Indicator: V-79/6-THIOGUANINE, Metabolic Activation: RAT HEPATOCYTES, Method: STANDARD PLATE): inactive; negative
- mutagenic call (Test System: CHINESE HAMSTER V-79, Strain/Indicator: V-79/OUABAIN, Metabolic Activation: NONE, Method: STANDARD PLATE): inactive; negative
- mutagenic call (Test System: CHINESE HAMSTER V-79, Strain/Indicator: V-79/OUABAIN, Metabolic Activation: RAT HEPATOCYTES, Method: STANDARD PLATE): inactive; negative
- mutagenic call (Test System: E. COLI, Strain/Indicator: WP2, Metabolic Activation: NONE, Method: STANDARD PLATE): inactive; negative
- mutagenic call (Test System: E. COLI, Strain/Indicator: WP2, Metabolic Activation: RAT, LIVER, S-9, AROCLOR 1254, Method: STANDARD PLATE): inactive; negative

Structure (SMILES): NCC(=O)CCC(=O)O
- mutagenic call (Test System: AMES SALMONELLA TYPHIMURIUM, Strain/Indicator: TA98, Metabolic Activation: NONE, Method: PREINCUBATION): inactive; negative
- mutagenic call [4]: inactive; negative
- mutagenic call (Test System: AMES SALMONELLA TYPHIMURIUM, Strain/Indicator: TA102, Metabolic Activation: NONE, Method: PREINCUBATION): active; positive
- mutagenic call (Test System: AMES SALMONELLA TYPHIMURIUM, Strain/Indicator: TA104, Metabolic Activation: NONE, Method: PREINCUBATION): active; positive
- mutagenic call (Test System: AMES SALMONELLA TYPHIMURIUM, Strain/Indicator: TA1535, Metabolic Activation: NONE, Method: PREINCUBATION): inactive; negative

Structure (SMILES): NC(=O)/C(=C\c1ccc([N+](=O)[O-])o1)c1ccco1
- mutagenic call [1]: active; positive
- mutagenic call (Test System: AMES SALMONELLA TYPHIMURIUM, Strain/Indicator: TA98, Metabolic Activation: RAT, LIVER, S-9, KC500 OR PHENOBARBITAL, Method: LIQUID SUSPENSION): active; positive
- mutagenic call [4]: active; positive
- mutagenic call [3]: active; positive
- mutagenic call (Test System: AMES SALMONELLA TYPHIMURIUM, Strain/Indicator: TA100, Metabolic Activation: RAT, LIVER, S-9, KC500 OR PHENOBARBITAL, Method: LIQUID SUSPENSION): active; positive
- mutagenic call (Test System: AMES SALMONELLA TYPHIMURIUM, Strain/Indicator: YG7112, Metabolic Activation: NONE, Method: PREINCUBATION): active; positive
- mutagenic call (Test System: AMES SALMONELLA TYPHIMURIUM, Strain/Indicator: YG7113, Metabolic Activation: NONE, Method: PREINCUBATION): active; positive
- mutagenic call (Test System: AMES SALMONELLA TYPHIMURIUM, Strain/Indicator: YG7119, Metabolic Activation: NONE, Method: PREINCUBATION): active; positive
- mutagenic call (Test System: Ames Salmonella typhimurium, Strain/Indicator: TA100, Metabolic Activation: None, Method: Preincubation): active; positive
- mutagenic call (Test System: Ames Salmonella typhimurium, Strain/Indicator: TA1975P, Metabolic Activation: None, Method: Preincubation): active; positive (at higher doses)
- mutagenic call (Test System: CHINESE HAMSTER V-79, Strain/Indicator: V-79/8-AZAGUANINE, Metabolic Activation: NONE, Method: STANDARD PLATE): active; positive
- mutagenic call (Test System: E. COLI, Strain/Indicator: WP2, Metabolic Activation: NONE, Method: PREINCUBATION): active; positive
- mutagenic call (Test System: E. COLI, Strain/Indicator: WP2 UVRA, Metabolic Activation: NONE, Method: SPOT): active; positive
- mutagenic call (Test System: MOUSE LYMPHOMA, Strain/Indicator: L5178Y (TK+/TK-), Metabolic Activation: NONE, Method: SUSPENSION/PLATE): active; positive
- mutagenic call (Test System: MOUSE LYMPHOMA, Strain/Indicator: L5178Y (TK+/TK-), Metabolic Activation: RAT, LIVER, S-9, AROCLOR 1254, Method: SUSPENSION/PLATE): active; positive

Structure (SMILES): CN1CC[C@]23c4c5ccc(O)c4O[C@H]2[C@@H](O)C=C[C@H]3[C@H]1C5
- mutagenic call [2]: inactive; negative

Structure (SMILES): CC(=O)OCc1c2ccccc2cc2ccccc12
- mutagenic call [1]: active; positive
- mutagenic call [3]: active; positive

Structure (SMILES): CC(C)=CCCC(C)CCO (configuration not stated)
- mutagenic call [1]: inactive; negative
- mutagenic call (Test System: AMES SALMONELLA TYPHIMURIUM, Strain/Indicator: TA98, Metabolic Activation: S-9, Method: STANDARD PLATE): inactive; negative
- mutagenic call [3]: inactive; negative

Structure (SMILES): O=[N+]([O-])c1cc2c(cc1O)[nH]c1ccccc12
- mutagenic call (Test System: AMES SALMONELLA TYPHIMURIUM, Strain/Indicator: TA98(NR), Metabolic Activation: NONE, Method: STANDARD PLATE): active; positive
- mutagenic call (Test System: AMES SALMONELLA TYPHIMURIUM, Strain/Indicator: TA98(NR), Metabolic Activation: RAT, LIVER, S-9, AROCLOR 1254, Method: STANDARD PLATE): active; positive
- mutagenic call [1]: active; positive
- mutagenic call [2]: active; positive

Structure (SMILES): [N-]=[N+]=NCc1ccccc1
- mutagenic call (End Point: IN VITRO CHROMOSOMAL ABERRATIONS, Test System: CHL CELLS, Metabolic Activation: NONE): inactive; negative
- mutagenic call (End Point: IN VITRO CHROMOSOMAL ABERRATIONS, Test System: CHL CELLS, Metabolic Activation: RAT, LIVER, S-9, SODIUM PHENOBARBITAL AND 5,6-BENZOFLAVONE): inactive; negative
- mutagenic call (Test System: AMES SALMONELLA TYPHIMURIUM, Strain/Indicator: TA100, Metabolic Activation: RAT, LIVER, S-9, PCB, Method: PREINCUBATION): active; positive
